Laboratory results from US9849140B2, “Topical compositions comprising bimatoprost and methods for stimulating hair growth therewith” (Allergan, Inc., priority 2009, dated 2017).

Columns and labels:
[1] = tested on: men with mild to moderate androgenic alopecia (AGA); assay: Phase 2 multicenter trial, safety (treatment-related adverse events, clinical laboratory, vital signs, ECGs, physical examinations); assay type: in vivo, human
Procedure: (§1) In a phase 2 multicenter trial, men 18-49 years of age with mild to moderate androgenic alopecia (AGA) were randomized in a 1:1:1:1:1 ratio to receive in a double-blind manner bimatoprost (BIM) 0.3%, 0.1%, 0.03%, or vehicle applied once daily, or open label over-the-counter minoxidil 5% solution (MIN) applied twice daily to the vertex area of the scalp for 6 months. Subjects were evaluated every 2 months during treatment and at 2 months after completing treatment. The BIM formulations used in this study were as described in Table 3 above.
Safety measures included adverse event monitoring, local tolerability assessment, clinical laboratory testing, vital signs, 12-lead electrocardiograms (ECGs), and physical examinations.
Percent changes from baseline in TAHC, TAHW, and TAHD were analyzed using the Wilcoxon rank-sum test. Frequency distributions of SSA, IGA, and GPR scores were analyzed using a Cochran-Mantel-Haenszel test stratified for age group (18-34 vs 35-49 years), and missing data were imputed to month 6 using a last-observation-carried-forward approach. Safety measures were evaluated in all subjects who received study medication; among-group and pairwise comparisons of the incidence of adverse events were performed using a chi-square or Fisher's exact test

[2] = tested on: men with mild to moderate androgenic alopecia (AGA); assay: Phase 2 multicenter trial, scalp hair growth efficacy (DIA: TAHC, TAHW, TAHD; SSA, IGA, GPR); assay type: in vivo, human
Procedure: as §1
The following assessments were made with digital image analysis (DIA; macrophotographs of a prespecified 1-cm^2 circular area at the anterior leading edge of the vertex thinning area of the scalp identified by microdot tattoo) using customized validated software: Target Area Hair Count (TAHC) measured in terminal hairs/cm^2; Target Area Hair Width (TAHW) measured in mm/cm^2; and, Target Area Hair Darkness (TAHD) measured in intensity units;
Co-primary efficacy endpoints measured included the change from baseline in TAHC and the SSA of change in scalp hair growth. Secondary efficacy endpoints included changes from baseline in TAHW and TAHD, and IGA/GPR of changes in scalp hair growth. […]

Structure (SMILES): CCNC(=O)CCC/C=C\C[C@@H]1[C@@H](/C=C/[C@@H](O)CCc2ccccc2)[C@H](O)C[C@@H]1O [bimatoprost, cyclopentane N-ethyl heptanamide-5-cis-2-(3α-hydroxy-5-phenyl-1-trans-pentenyl)-3,5-dihy-droxy, [1α,2β,3α,5α]]
- incidence of treatment-related adverse events, in words ([1]; compared with vehicle and minoxidil): slightly higher with bimatoprost compared with vehicle, but lower than the rate with minoxidil
- changes in clinical laboratory parameters, vital signs, ECGs, or physical examinations, in words ([1]; human, in vivo): no clinically meaningful or dose-dependent changes
- safety and tolerability profile, in words ([1]; human, in vivo): consistent with that of an established topical treatment for scalp hair growth
- distribution of SSA (Subject Self Assessment) scores versus vehicle, in words ([2]; month 6): did not differ
- changes in TAHC and TAHW versus vehicle, in words ([2]; two months after stopping treatment): no longer significantly different from vehicle
